Experimental data taken from EP2769738B1, “Conjugated TLR7 and/or TLR8 and TLR2 polycationic agonists” (Invivogen, priority 2013, dated 2014).
“And” between values parts separate entries of the source, which are not always exact repeats. Identical values can stand only once.

Assay: Determination of nanoparticle (lipoplex) size by dynamic light scattering
Format: physicochemical
Conditions: ratio 3:24 (w:w); for Conformity (C)/ Non-conformity (NC) / Mean Diameter (nm): complexes with pDNA; for Mean Diameter (nm): dynamic light scattering at 25°C; for Mean Diameter (nm) / PDI: triplicate measurements; for PDI: polydispersity index of complexes with pDNA, 25°C
Description: • 1. Preparative HPLC Method: Unless otherwise indicated, the compounds described herein were purified by RP-MPLC ARMEN® Spot Flash Liquid Chromatography (ARMEN Instrument, Saint Ave, France) on a preparative column (SVF D26) packed with 25-40 µm C18 resin (Merck chimie SAS), by applying a linear gradient of 0-10% MeCN in NH4OAc (10 mM) solution (pH = 9) over 60 min at a 15 mL/min flow rate. The purification was monitored at 254 nm. Suitable fractions were pooled and lyophilised. • 2. Proton NMR Spectra: Unless otherwise indicated, all ^1H NMR spectra were run on a Bruker series 300 MHz instrument. Where so characterized, all observed protons are reported as parts-per-million (ppm) downfield from tetramethylsilane (TMS) or other internal reference in the appropriate solvent indicated. NMR spectra were recorded on a Brucker 300 spectrometer. For ^1H (300 MHz) spectra δ values were referenced to CDCI3-d1 (7.26 ppm), DMSO- d6 (2.50 ppm), D2O-d2 (4.79 ppm) or MeOD-d4 (3.31 ppm). The peak patterns are indicated as follows: s: singlet, sl: large singlet, d: doublet, t: triplet, q: quartet, m: multiplet. • 3. Mass Spectra (MS): Analyses were run on an Agilent Model 6130 quadrupole MS. Unless otherwise indicated, all mass spectral data for starting materials, intermediates and/or exemplary compounds are reported as mass/charge (m/z), having an (M+H)^+ molecular ion. The molecular ion reported was obtained by electrospray detection method (commonly referred to as an ESI MS). Compounds having an isotopic atom, such as bromine and the like, are generally reported according to the detected isotopic pattern, as appreciated by those skilled in the art. • 4. Particle size: Particle size was determined using a Malvern Nanosizer (Malvern, Worcestershire, UK) and Malvern ZETASIZER.RTM. (Malvern, Worcestershire, UK). • 5. Naming Convention The compounds disclosed and described herein have been named using the naming convention provided with Chem-Draw Ultra 11.0 software, available in Chem. Office. In some instances, compounds were named with the term "spermine" inserted where appropriate. For example, where the spermine is substituted with Boc, "N1,N5,N10-TriBoc-spermine" is added to the Chem-Draw nomenclature in the appropriate place. Chem-Draw utilizes the ISIS Draw software compound naming convention, as appreciated by those skilled in the art.
For pDNA:TLR7-TLR2 polyamine molecules complexes, a ratio pDNA:TLR7-TLR2 polyamine molecules of 3:24 (w:w) was prepared in serum-free culture medium or in 5% glucose. The TLR7-TLR2 conjugated compound of interest was prediluted in serum-free culture medium or in 5% glucose and incubated for 5 minutes at room temperature, prior to the addition of an endotoxin-free, salt-free preparation of pDNA. In these experiments, the pBsr2pCpGLacZh plasmid was used in the pDNA:TLR7-TLR2 polyamine molecule complexes. The pDNA:TLR7-TLR2 polyamine molecule mixtures were incubated at room temperature for 30 minutes to allow the formation of the complex. The control used in these experiments was the cationic lipid transfection agent LyoVec™ (InvivoGen) prepared in a similar manner.
In order to confirm that TLR7-TLR2 polyamine molecules complex DNA, lipoplex size was determined. The physical characterization of complex was achieved by dynamic light scattering using the analytical equipment for laser diffraction Zetasizer Nano-ZS (Malvern). pDNA:TLR7-TLR2 polyamine molecule complexes were prepared as described above. Subsequently, 50µl of pDNA: TLR7-TLR2 polyamine molecule complexes were placed into a disposable sizing cuvette and measurements were made under conditions defined according to manufacturer's instructions. The measurements were made at 25°C in triplicate and a size distribution report was obtained. […]

Compound	Mean Diameter (nm)	PDI	Conformity (C)/ Non-conformity (NC)
CCCCCCCCCCCCCCCC(=O)OCC(CSC[C@H](N)C(=O)N[C@@H](COC(=O)c1ccc(Cn2c(O)nc3c(N)nc(NCCCC)nc32)cc1)C(=O)NCCCNCCCCNCCCN)OC(=O)CCCCCCCCCCCCCCC (stereo partly drawn) [CL514, (6R,9S)-6,23-diamino-9-((4-((6-amino-2-(butylamino)-8-hydroxy-9H-purin-9-yl)methyl)benzoyloxy)methyl)-7,10-dioxo-4-thia-8,11,15,20-tetraazatricosane-1,2-diyl dipalmitate]	249,1 nm and 309,6 nm and 258,3 nm	0,303 and 0,354 and 0,372	C (ranged between 140 and 200 nm in diameter were considered to show conformity)
CCCCCCCCCCCCCCCC(=O)OCC(CSC[C@H](N)C(=O)N[C@@H](CCC(=O)NCCCNCCCCNCCCN)C(=O)Nc1ccc(Cn2c(O)nc3c(N)nc(NCCCC)nc32)cc1)OC(=O)CCCCCCCCCCCCCCC (stereo partly drawn) [CL527, (6R,9S)-6,25-diamino-9-(4-((6-amino-2-(butylamino)-8-hydroxy-9H-purin-9-yl)methyl)phenylcarbamoyl)-7,12-dioxo-4-thia-8,13,17,22-tetraazapentacosane-1,2-diyl dipalmitate]	175,1 nm and 156,9 nm and 168,3 nm	0,253 and 0,239 and 0,258	C (ranged between 140 and 200 nm in diameter were considered to show conformity)
CCCCCCCCCCCCCCCC(=O)OCC(CSC[C@H](N)C(=O)NCCCNCCCCNCCCNC(=O)CNC(=O)c1ccc(Cn2c(O)nc3c(N)nc(NCCCC)nc32)cc1)OC(=O)CCCCCCCCCCCCCCC (stereo partly drawn) [CL553, (20R)-20-amino-1-(4-((6-amino-2-(butylamino)-8-hydroxy-9H-purin-9-yl)methyl)phenyl)-1,4,19-trioxo-22-thia-2,5,9,14,18-pentaazapentacosane-24,25-diyl dipalmitate]	170.0 nm and 190.0 nm and 180,2 nm	0,226 and 0,230 and 0,237	C (ranged between 140 and 200 nm in diameter were considered to show conformity)

Further lines, with some results ahead:

Mean Diameter (nm)	PDI	Compound	Conformity (C)/ Non-conformity (NC)
145,9 nm and 155,8 nm and 153,5 nm	0,193 and 0,176 and 0,158	CCCCCCCCCCCCCCCC(=O)OCC(CSC[C@H](N)C(=O)N[C@@H](CCCCNC(=O)CNC(=O)c1ccc(Cn2c(O)nc3c(N)nc(NCCCC)nc32)cc1)C(=O)NCCCNCCCCNCCCN)OC(=O)CCCCCCCCCCCCCCC (stereo partly drawn) [CL475, (6R,9S)-6,23-diamino-9-(4-(2-(4-((6-amino-2-(butylamino)-8-hydroxy-9H-purin-9-yl)methyl)benzamido)acetamido)butyl)-7,10-dioxo-4-thia-8,11,15,20-tetraazatrico sane-1,2-diyl dipalmitate]	C (ranged between 140 and 200 nm in diameter were considered to show conformity)
209,2 nm and 179,7 nm and 202,0 nm	0,236 and 0,232 and 0,234	CCCCCCCCCCCCCCCC(=O)OCC(CSC[C@H](N)C(=O)NCCCC[C@H](NC(=O)c1ccc(Cn2c(O)nc3c(N)nc(NCCCC)nc32)cc1)C(=O)NCCCNCCCCNCCCN)OC(=O)CCCCCCCCCCCCCCC (stereo partly drawn) [CL486, (6R,13S)-6,27-diamino-13-(4-((6-amino-2-(butylamino)-8-hydroxy-9H-purin-9-yl)methyl)benzamido)-7,14-dioxo-4-thia-8,15,19,24-tetraazaheptacosane-1,2-diyl dipalmitate]	C (ranged between 140 and 200 nm in diameter were considered to show conformity)
148,1 nm and 165,6 nm and 160,0 nm	0,23 and 0,255 and 0,241	CCCCCCCCCCCCCCCC(=O)OCC(CSC[C@H](N)C(=O)NCCCC[C@H](NC(=O)CNC(=O)c1ccc(Cn2c(O)nc3c(N)nc(NCCCC)nc32)cc1)C(=O)NCCCNCCCCNCCCN)OC(=O)CCCCCCCCCCCCCCC (stereo partly drawn) [CL487, (6R,13S)-6,27-diamino-13-(2-(4-((6-amino-2-(butylamino)-8-hydroxy-9H-purin-9-yl)methyl)benzamido)acetamido)-7,14-dioxo-4-thia-8,15,19,24-tetraazaheptacosane-1,2-diyl dipalmitate]	C (ranged between 140 and 200 nm in diameter were considered to show conformity)
